Earlier results in US8188123B2, “(Pyrrolidin-2-yl)phenyl derivatives” (priority 2008, dated 2012).
Like-named read-outs stand apart in the source and are kept apart here.

How the values were obtained:
mechanical allodynia [1] = conditions: intraperitoneal administration; Chung/von Frey
allodynia = conditions: rat CFA model of inflammatory pain
spontaneous pain = conditions: rat mild thermal injury model
mechanical allodynia [2] = conditions: local administration to the sciatic nerve 4 h after surgery; Brennan model
[3] = tested on: nerve injured myelinated DRG
[4] = tested on: ectopic discharges in A-beta and A-delta fibres; conditions: nerve injury

CCN(c1ccccc1)c1cc(=NC)n(C)c(C)n1.Cl [ZD 7288]
mechanical allodynia (mechanical allodynia [1]): dose-dependently reverses mechanical allodynia | allodynia (allodynia): suppresses allodynia | spontaneous pain (spontaneous pain): blocks spontaneous pain | mechanical allodynia (mechanical allodynia [2]): attenuates mechanical allodynia | spontaneous activity [3]: reduces spontaneous activity | firing frequency of ectopic discharges [4]: reduced the firing frequency of ectopic discharges in A-beta and A-delta fibres, without causing conduction block
